Test results reported in ChEMBL document CHEMBL2203227, “Macrocycles are great cycles: applications, opportunities, and challenges of synthetic macrocycles in drug discovery” (J Med Chem, 2011).
Where a SMILES comes first, the peptide text is derived from it. [ ]: non-standard residue; d: D form. The star is where a group is joined. Hyp = O=C(O)[C@@H]1C[C@@H](O)CN1; Nva = CCC[C@H](N)C(=O)O; Bn = c1ccc(C*)cc1

Experiments:
[1] = Inhibition of HIV protease; design: species or system Human immunodeficiency virus
Prothrombin = Prothrombin (Homo sapiens, UniProt P00734); experiment: Inhibition of thrombin
[2] = biological target: DnaJ homolog subfamily A member 1 (Homo sapiens, UniProt P31689); experiment: Inhibition of HDJ2
DnaJ homolog subfamily A member 1, sequence (P31689 whole entry): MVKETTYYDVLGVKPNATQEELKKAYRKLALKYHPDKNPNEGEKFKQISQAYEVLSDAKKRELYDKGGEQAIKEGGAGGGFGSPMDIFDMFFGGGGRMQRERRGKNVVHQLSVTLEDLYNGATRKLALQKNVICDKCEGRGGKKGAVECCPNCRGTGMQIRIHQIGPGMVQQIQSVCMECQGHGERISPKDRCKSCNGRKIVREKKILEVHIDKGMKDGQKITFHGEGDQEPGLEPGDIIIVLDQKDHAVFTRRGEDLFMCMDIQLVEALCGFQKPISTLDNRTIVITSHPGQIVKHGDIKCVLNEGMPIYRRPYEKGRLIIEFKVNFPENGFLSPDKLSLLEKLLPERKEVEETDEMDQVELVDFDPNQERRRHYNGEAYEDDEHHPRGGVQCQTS

[3] = Inhibition of FTase
GTPase KRas = GTPase KRas (Homo sapiens, UniProt P01116); experiment: Inhibition of Ki-Ras
GTPase KRas, sequence (P01116 whole entry): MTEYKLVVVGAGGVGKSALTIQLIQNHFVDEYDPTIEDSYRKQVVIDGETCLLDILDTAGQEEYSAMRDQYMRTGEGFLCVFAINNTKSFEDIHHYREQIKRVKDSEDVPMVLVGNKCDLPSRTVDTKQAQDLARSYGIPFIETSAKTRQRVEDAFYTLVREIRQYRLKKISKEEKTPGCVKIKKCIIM

[4] = Inhibition of GGTase
[5] = biological target: Ras-related protein Rap-1A (Homo sapiens, UniProt P62834); experiment: Inhibition of Rap1a
Ras-related protein Rap-1A, sequence (P62834 whole entry): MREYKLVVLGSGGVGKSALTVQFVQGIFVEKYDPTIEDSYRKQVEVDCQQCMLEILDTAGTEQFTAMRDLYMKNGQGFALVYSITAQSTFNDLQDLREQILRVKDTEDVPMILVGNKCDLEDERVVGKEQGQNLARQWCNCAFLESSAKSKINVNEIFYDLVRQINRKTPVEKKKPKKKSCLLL

[6] = Selectivity ratio of IC50 for tPa to IC50 for thrombin
[7] = Selectivity ratio of IC50 for trypsin to IC50 for thrombin
Renin = biological target: T1, Renin (Homo sapiens, UniProt P00797); experiment: Inhibition of renin
T1 sequence (P00797 whole entry): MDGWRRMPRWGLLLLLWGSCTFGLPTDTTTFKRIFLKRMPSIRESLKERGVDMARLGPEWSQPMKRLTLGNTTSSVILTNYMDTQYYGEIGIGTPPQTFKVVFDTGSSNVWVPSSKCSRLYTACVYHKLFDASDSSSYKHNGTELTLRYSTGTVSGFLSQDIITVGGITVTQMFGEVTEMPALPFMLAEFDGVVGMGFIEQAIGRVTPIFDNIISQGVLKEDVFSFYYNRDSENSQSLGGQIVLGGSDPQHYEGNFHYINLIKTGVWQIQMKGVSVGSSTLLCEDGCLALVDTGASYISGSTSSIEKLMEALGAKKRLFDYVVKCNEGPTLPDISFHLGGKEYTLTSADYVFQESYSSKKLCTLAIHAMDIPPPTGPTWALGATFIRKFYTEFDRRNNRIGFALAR

[8] = biological target: Sonic hedgehog protein (Mus musculus) (UniProt Q62226); experiment: Inhibition of sonic hedgehog pathway in mouse NIH-3T3 cells relative to control; assay type: cell-based; conditions: NIH3T3
Hepatitis C virus [9] = experiment: microbe, parasite or virus in culture
Description: Antiviral activity against HCV by cell based replicon assay

[10] = Inhibition of HCV 1a NS3 protease; design: species or system Hepatitis C virus subtype 1a
Hepatitis C virus [11] = experiment: Inhibition of HCV 1b NS3 protease; design: species or system Hepatitis C virus subtype 1b
[12] = biological target: Growth hormone secretagogue receptor type 1 (Homo sapiens, UniProt Q92847); experiment: Agonist activity at ghrelin receptor; assay type: functional
Growth hormone secretagogue receptor type 1, sequence (Q92847 whole entry): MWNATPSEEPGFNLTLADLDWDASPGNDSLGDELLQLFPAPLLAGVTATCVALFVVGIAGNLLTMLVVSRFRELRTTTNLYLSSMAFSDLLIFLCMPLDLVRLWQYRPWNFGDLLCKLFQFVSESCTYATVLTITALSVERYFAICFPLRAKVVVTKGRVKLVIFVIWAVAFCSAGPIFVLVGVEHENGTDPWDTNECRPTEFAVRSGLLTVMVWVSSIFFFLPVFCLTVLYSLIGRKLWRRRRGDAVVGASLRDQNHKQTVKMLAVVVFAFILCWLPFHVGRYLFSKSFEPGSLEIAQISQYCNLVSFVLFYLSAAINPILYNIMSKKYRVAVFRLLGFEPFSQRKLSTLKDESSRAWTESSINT

[13] = Half life in dog; assay type: ADME, organism-based, Canis lupus familiaris; conditions: in vivo
[14] = Inhibition of HCV NS3 protease; design: species or system Hepacivirus hominis
[15] = Inhibition of HDAC by fluorimetry assay
Neprilysin = Neprilysin (Homo sapiens, UniProt P08473); experiment: Inhibition of neutral endopeptidase
Neprilysin, sequence (P08473 whole entry): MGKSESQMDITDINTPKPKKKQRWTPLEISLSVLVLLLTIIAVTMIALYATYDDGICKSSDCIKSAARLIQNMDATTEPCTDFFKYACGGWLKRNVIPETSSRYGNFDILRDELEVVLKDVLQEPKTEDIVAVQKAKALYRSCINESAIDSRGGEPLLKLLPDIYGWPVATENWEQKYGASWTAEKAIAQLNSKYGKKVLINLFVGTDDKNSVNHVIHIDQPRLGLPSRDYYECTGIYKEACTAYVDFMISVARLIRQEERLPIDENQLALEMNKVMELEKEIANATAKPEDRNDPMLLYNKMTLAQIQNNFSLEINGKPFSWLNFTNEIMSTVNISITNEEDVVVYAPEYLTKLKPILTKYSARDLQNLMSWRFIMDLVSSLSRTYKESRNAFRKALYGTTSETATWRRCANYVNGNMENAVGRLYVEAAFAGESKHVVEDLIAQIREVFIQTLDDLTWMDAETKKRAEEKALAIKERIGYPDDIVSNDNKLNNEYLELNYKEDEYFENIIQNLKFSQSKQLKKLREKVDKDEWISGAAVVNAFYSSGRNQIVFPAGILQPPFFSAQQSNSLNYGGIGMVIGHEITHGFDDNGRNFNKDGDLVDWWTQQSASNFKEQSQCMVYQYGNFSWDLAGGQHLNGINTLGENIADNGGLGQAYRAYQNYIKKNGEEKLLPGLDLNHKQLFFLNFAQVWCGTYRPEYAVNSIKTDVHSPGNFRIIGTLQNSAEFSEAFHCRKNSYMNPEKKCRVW

[16] = biological target: Angiotensin-converting enzyme (Homo sapiens, UniProt P12821); experiment: Inhibition of ACE
Angiotensin-converting enzyme, sequence (P12821 whole entry): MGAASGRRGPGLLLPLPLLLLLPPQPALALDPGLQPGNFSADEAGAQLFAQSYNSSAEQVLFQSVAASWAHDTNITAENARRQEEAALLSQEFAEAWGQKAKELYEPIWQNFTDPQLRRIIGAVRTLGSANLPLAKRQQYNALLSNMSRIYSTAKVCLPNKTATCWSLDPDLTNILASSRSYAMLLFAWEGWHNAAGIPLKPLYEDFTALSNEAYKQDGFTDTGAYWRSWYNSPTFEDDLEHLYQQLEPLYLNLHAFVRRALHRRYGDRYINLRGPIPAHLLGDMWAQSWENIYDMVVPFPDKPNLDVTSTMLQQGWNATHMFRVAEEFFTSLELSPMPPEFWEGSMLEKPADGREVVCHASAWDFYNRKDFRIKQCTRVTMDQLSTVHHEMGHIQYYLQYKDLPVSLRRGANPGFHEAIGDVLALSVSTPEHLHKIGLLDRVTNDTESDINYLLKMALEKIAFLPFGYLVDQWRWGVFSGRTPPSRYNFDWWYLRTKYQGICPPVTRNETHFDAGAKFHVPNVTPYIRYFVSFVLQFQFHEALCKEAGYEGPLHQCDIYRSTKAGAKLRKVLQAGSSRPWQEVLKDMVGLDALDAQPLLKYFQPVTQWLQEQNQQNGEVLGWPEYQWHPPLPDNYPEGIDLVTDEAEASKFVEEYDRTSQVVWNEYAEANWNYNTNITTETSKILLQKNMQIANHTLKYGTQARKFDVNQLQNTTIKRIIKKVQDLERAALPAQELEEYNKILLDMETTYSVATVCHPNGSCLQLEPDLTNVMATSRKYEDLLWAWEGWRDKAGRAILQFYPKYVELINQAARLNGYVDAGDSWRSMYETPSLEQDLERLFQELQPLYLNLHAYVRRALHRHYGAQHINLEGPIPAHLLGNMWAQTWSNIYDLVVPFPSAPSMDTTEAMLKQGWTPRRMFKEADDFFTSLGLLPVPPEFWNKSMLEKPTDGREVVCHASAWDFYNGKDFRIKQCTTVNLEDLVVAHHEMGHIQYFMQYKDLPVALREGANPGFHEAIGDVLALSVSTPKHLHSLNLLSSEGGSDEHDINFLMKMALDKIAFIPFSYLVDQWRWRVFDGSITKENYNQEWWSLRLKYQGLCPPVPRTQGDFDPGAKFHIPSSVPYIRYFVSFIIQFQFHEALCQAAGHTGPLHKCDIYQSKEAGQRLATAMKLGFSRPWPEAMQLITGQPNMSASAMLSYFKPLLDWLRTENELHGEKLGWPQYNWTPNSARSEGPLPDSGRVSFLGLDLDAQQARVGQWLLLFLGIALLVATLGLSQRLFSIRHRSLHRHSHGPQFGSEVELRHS

[17] = Oral bioavailability in rat; assay type: ADME, organism-based; conditions: in vivo

`COc1ccc2c(c1)OCC/C=C\CCCCN(C[C@@H](O)[C@H](Cc1ccccc1)NC(=O)O[C@H]1CO[C@H]3OCC[C@H]31)S2(=O)=O` gave an IC50 [1] of 4.6 nM and a Ki [1] of 0.012 nM.

In the case of `O=C1COc2ccc(Cl)cc2CNC(=O)[C@@H]2CCCN2C(=O)[C@@H](C2CCCCC2)NC(=O)CCN1`, the Ki (Prothrombin) is reported as 0.4 nM.

Work on `N#Cc1ccc2cc1Oc1ccc(CCC3CCCCC3)c(c1)CN1CCN(CC1=O)Cc1cncn1C2` yielded an EC50 [2] of 12 nM, an IC50 [3] of 1.6 nM and an EC50 (GTPase KRas) of 1060 nM. The IC50 [4] was 1.7 nM and the EC50 [5] was 140 nM.

For `O=C1COc2ccc(Cl)cc2CNC(=O)[C@@H]2CCCN2C(=O)[C@@H](C2CCCCC2)NC(=O)CCCN1`, the Ratio IC50 [6] was > 2000 and the Ratio IC50 [7] was > 2000.

In the case of `CC[C@H](C)[C@H](NC(=O)[C@@H](NC[C@@H]1COCCCN(C(=O)[C@H](Cc2ccccc2)NC(=O)OC(C)(C)C)[C@@H](C)C(=O)N1)C(C)C)C(=O)N[C@@H](Cc1cnc[nH]1)C(=O)OC`, the IC50 (Renin) is reported as > 100000 nM.

In the case of `CC[C@H](C)[C@H](NC(=O)[C@@H](C[C@H](O)[C@H](CC1CCCCC1)NC(=O)[C@@H]1Cc2cn(cn2)CC(=O)N2CCC[C@H]2C(=O)N[C@@H](Cc2ccccc2)C(=O)N1)C(C)C)C(=O)NCc1ccccn1`, the IC50 (Renin) is reported as 0.29 nM.

For `CC(C)CCN(C[C@@H](O)[C@@H]1Cc2ccc(cc2)OCCCC(=O)N[C@@H](CC(N)=O)C(=O)N1)S(=O)(=O)c1ccccc1`, the Ki [1] was 0.6 nM.

Work on `O=C(C[C@@H]1C/C=C/CCC(=O)O[C@H](c2ccccc2)CNC1=O)NCc1ccc(Cl)cc1` yielded an Emax [8] of 91%.

For `Cc1ncn(Cc2ccc(C#N)cc2)c1CN1CC(=O)N(c2cccc(Cl)c2)C[C@@H]1CCS(C)(=O)=O`, the IC50 [3] was 475 nM.

In the case of `COc1ccc2c(O[C@@H]3C[C@H]4C(=O)N[C@]5(C(=O)O)C[C@H]5/C=C\CCCCC[C@H](NC(=O)OC(C)(C)C)C(=O)N4C3)cc(-c3ccccc3)nc2c1`, the EC50 (Hepatitis C virus [9]) is reported as 7 nM, the Ki [10] is reported as 1.4 nM and the Ki (Hepatitis C virus [11]) is reported as 1 nM.

Compound `CC[C@H](C)[C@@H]1NC(=O)[C@@H](NC[C@H](O)[C@H](Cc2ccccc2)NC(=O)OC(C)(C)C)Cc2ccc(cc2)Oc2ccc(cc2)C[C@@H](C(=O)OC)NC1=O` has a Ki [1] of 15 nM.

Work on `NC(N)=NCCC[C@@H]1NC(=O)[C@@H]2CCCN2C(=O)[C@@H](NC=O)CNC(=O)/C=C/[C@H](Cc2ccc(O)cc2)NC(=O)[C@@H](Cc2ccccc2)NC(=O)C1=O` [CYCLOTHEONAMIDE A] yielded a Ki (Prothrombin) of 180 nM.

`CCC[C@@H]1NCCOc2ccccc2/C=C/CNC(=O)[C@@H](Cc2ccccc2)NC(=O)CN(C)C1=O` gave an EC50 [12] of 68 nM.

In the case of `O=C1COc2ccc(Cl)cc2CNC(=O)[C@@H]2CCCN2C(=O)[C@@H](C2CCCCC2)NC(=O)CN1`, the Ratio IC50 [6] is reported as > 2000, the Ki (Prothrombin) is reported as 0.4 nM and the Ratio IC50 [7] is reported as > 2000.

In the case of `N#Cc1ccc2cc1Oc1ccc3cccc(c3c1)N1CCN(CC1=O)Cc1cncn1C2`, the EC50 [2] is reported as 2 nM, the IC50 [3] is reported as 0.1 nM and the half-life [13] is reported as 1 h. For the same compound, the EC50 (GTPase KRas) was > 10000 nM, the IC50 [4] was 301 nM and the EC50 [5] was > 10000 nM.

For `C=C[C@@H]1C[C@]1(NC(=O)[C@@H]1C[C@@H]2CN1C(=O)[C@H](C(C)(C)C)NC(=O)OCCCC/C=C/c1ccc3ccnc(c3c1)O2)C(=O)NS(=O)(=O)C1CC1`, the IC50 (Hepatitis C virus [9]) was 8.7 nM and the Ki [14] was 0.18 nM.

`N#Cc1ccccc1Oc1ccc2cccc(N3CCN(Cc4cnc[nH]4)CC3=O)c2c1` showed an IC50 [3] of 4500 nM.

`C[C@H]1COC(=O)[C@@H](N)CC/C=C/C[C@@H](CC(=O)N(CCO)Cc2ccccc2)C(=O)N1` gave an Emax [8] of 30%.

`O=C(CCCCCC1C2=NC(Cc3ccccc3)=C(O2)C(Cc2ccccc2)CCn2cc(nn2)CCCN1Cc1ccccc1)NO` (centres undefined) showed an IC50 [15] of 4300 nM.

In the case of `C=C[C@@H]1C[C@]1(NC(=O)[C@@H]1C[C@@H]2CN1C(=O)[C@H](C(C)(C)C)NC(=O)OCCCCCc1ccc3nc(-c4ccccc4)cc(c3c1)O2)C(=O)NS(=O)(=O)C1CC1`, the EC50 (Hepatitis C virus [9]) is reported as 6.7 nM and the Ki [14] is reported as < 0.016 nM.

`CC[C@H](C)[C@@H]1NC(=O)[C@@H](NC[C@@H](O)[C@@H]2Cc3ccc(cc3)OCCCCC(=O)N[C@@H](C(C)C)C(=O)N2)Cc2ccc(cc2)OCCCNC1=O` gave a Ki [1] of 3 nM.

`O=C1N[C@H](C(=O)N2C[C@H](O)C[C@H]2C(=O)O)CCCCCC[C@H]1CS` gave an IC50 (Neprilysin) of 0.8 nM.

Work on `COc1ccc(S(=O)(=O)N(CC(C)C)C[C@@H](O)[C@@H]2CCCCCCCCOc3c(O)cccc3C(=O)N2)cc1` yielded an IC50 [1] of 300 nM and a Ki [1] of 0.7 nM.

In the case of `CC[C@H](C)[C@H](NC(=O)[C@@H](NC[C@@H]1COCCCCCN(C(=O)[C@H](Cc2ccccc2)NC(=O)OC(C)(C)C)[C@@H](C)C(=O)N1)C(C)C)C(=O)N[C@@H](Cc1cnc[nH]1)C(=O)OC`, the IC50 (Renin) is reported as 69000 nM.

Work on `O=C1N[C@H](C(=O)O)CCCCCc2cccc(c2)C[C@H]1CS` yielded an IC50 (Neprilysin) of 8 nM and an IC50 [16] of 4 nM.

With `CCC[C@H](NC(=O)[C@@H]1C[C@@H](OCc2ccccc2)CN1C(=O)[C@@H](NC(=O)[C@@H](NC(=O)[C@H](CC(=O)O)NC(=O)[C@H](CC(=O)O)NC(C)=O)[C@@H](C)CC)C(C)C)C(=O)O` (Ac-DDIV[Hyp](Bn)[Nva]-OH) the IC50 [14] was 7000 nM.

`CC[C@H](C)[C@H](NC(=O)[C@@H](NC[C@@H]1COCCCCCCCN(C(=O)[C@H](Cc2ccccc2)NC(=O)OC(C)(C)C)[C@@H](C)C(=O)N1)C(C)C)C(=O)N[C@@H](Cc1cnc[nH]1)C(=O)OC` gave an IC50 (Renin) of 2700 nM.

With `N#Cc1ccc2cc1Oc1ccc3c(c1)[C@@H](CC3)N1CC[C@@H](NCc3cncn3C2)C1=O` the IC50 [3] was < 1.6 nM and the IC50 [4] was 18000 nM.

In the case of `O=C1COc2ccc(Cl)cc2CNC(=O)[C@@H]2CCCN2C(=O)[C@@H](C2CCCCC2)NC(=O)CCCCN1`, the Ratio IC50 [6] is reported as > 2000, the Ki (Prothrombin) is reported as 0.4 nM and the Ratio IC50 [7] is reported as > 2000.

Work on `C[C@@H]1CN[C@@H](C2CC2)C(=O)N(C)[C@H](C)C(=O)N[C@H](Cc2ccc(F)cc2)C(=O)NCCCc2ccccc2O1` [ULIMORELIN] yielded an EC50 [12] of 27 nM and a bioavailability [17] of 16%.

`C=C[C@@H]1C[C@]1(NC(=O)[C@@H]1C[C@@H](Oc2cc(-c3ccccc3)nc3cc(OC)ccc23)CN1C(=O)[C@@H](NC(=O)[C@@H](NC(C)=O)C1CCCCC1)C(C)(C)C)C(=O)O` showed an IC50 [14] of 1 nM.

Work on `CC[C@H](C)[C@@H]1NC(=O)[C@@H](NC[C@@H](O)[C@H](Cc2ccc(O)cc2)NC[C@H](C(C)C)N2CCCC2=O)Cc2ccc(cc2)OCCCNC1=O` yielded a Ki [1] of 1.8 nM.

Compound `O=C(CCCCCC1C2=NC(Cc3ccccc3)=C(O2)C(Cc2ccccc2)CCCCn2cc(nn2)CCCN1Cc1ccccc1)NO` (centres undefined) has an IC50 [15] of 6100 nM.

`CC(C)CN(C[C@@H](O)[C@H](Cc1ccccc1)NC(=O)O[C@H]1CO[C@H]2OCC[C@H]21)S(=O)(=O)c1ccc(N)cc1` showed a Ki [1] of 0.015 nM.

For `CC[C@H](C)[C@@H]1NCCOc2ccccc2CCCNC(=O)[C@@H](Cc2ccccc2)NC(=O)[C@@H](C)N(C)C1=O`, the Ki [12] was 6 nM.

For `CC[C@H](C)[C@H](NC(=O)[C@@H]1CCCN1C[C@H](O)[C@@H]1Cc2ccc(cc2)OCCCC(=O)N[C@@H](CC(N)=O)C(=O)N1)C(=O)N[C@H](C(N)=O)C(C)C`, the Ki [1] was 12 nM.

`COc1ccc2c(c1)OCC/C=C/CCCCN(C[C@@H](O)[C@H](Cc1ccccc1)NC(=O)O[C@H]1CO[C@H]3OCC[C@H]31)S2(=O)=O` showed an IC50 [1] of 7 nM and a Ki [1] of 0.06 nM.

For `CC(C)(C)C(=O)NCCOC(=O)N[C@@H](Cc1ccccc1)C(=O)N[C@H]1CCC(=O)NCCOC(=O)[C@H](O)[C@H](CC2CCCCC2)NC1=O`, the IC50 (Renin) was 56 nM.

For `O=C1N[C@H](C(=O)O)CCCCCc2ccccc2C[C@H]1CS`, the IC50 (Neprilysin) was 3 nM and the IC50 [16] was 8000 nM.

Compound `O=C1Cn2c(Cl)cnc(c2=O)N[C@@H](Cc2ccccc2)CNCCCNCCOc2ccc(Cl)cc2CN1` has a Ratio IC50 [6] of 7100, a Ki (Prothrombin) of 0.09 nM and a Ratio IC50 [7] of 23000.

With `C[C@H]1NCc2cncn2Cc2ccc(C#N)c(c2)Oc2ccc3cccc(c3c2)NC1=O` the IC50 [3] was 1.3 nM and the IC50 [4] was 313 nM.
